#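 Interpolation was linear, between the two tested concentrations surrounding the appropriate level; five concentrations were tested over 48 hours in 96-well plates. Here, GI50 denotes the concentration required for 50% inhibition of growth. The concentration for full growth arrest is given as TGI.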
# Legend:
# Assay in all cases: inhibition of tumour cell growth, NCI panel, 48 h
# 786-0 renal = test system: 786-0 renal
# A498 renal = test system: A498 renal
# A549 NSCLC = test system: A549 NSCLC
# ACHN renal = test system: ACHN renal
# BT-549 breast = test system: BT-549 breast
# CAKI-1 renal = test system: CAKI-1 renal
# CCRF-CEM leukemia = test system: CCRF-CEM leukemia
# DU-145 prostate = test system: DU-145 prostate
# EKVX NSCLC = test system: EKVX NSCLC
# HCC-2998 colon = test system: HCC-2998 colon
# HCT-15 colon = test system: HCT-15 colon
# HL-60(TB) leukemia = test system: HL-60(TB) leukemia
# HOP-92 NSCLC = test system: HOP-92 NSCLC
# HS 578T breast = test system: HS 578T breast
# IGROV1 ovarian = test system: IGROV1 ovarian
# K-562 leukemia = test system: K-562 leukemia
# KM12 colon = test system: KM12 colon
# LOX IMVI melanoma = test system: LOX IMVI melanoma
# M14 melanoma = test system: M14 melanoma
# MCF7 breast = test system: MCF7 breast
# MDA-MB-231 breast = test system: MDA-MB-231 breast
# MDA-MB-435 = test system: MDA-MB-435
# MOLT-4 leukemia = test system: MOLT-4 leukemia
# NCI-H226 lung = test system: NCI-H226 lung
# NCI-H23 lung = test system: NCI-H23 lung
# NCI-H460 lung = test system: NCI-H460 lung
# NCI-H522 lung = test system: NCI-H522 lung
# NCI/ADR-RES ovarian = test system: NCI/ADR-RES ovarian
# OVCAR-3 ovarian = test system: OVCAR-3 ovarian
# OVCAR-5 ovarian = test system: OVCAR-5 ovarian
# OVCAR-8 ovarian = test system: OVCAR-8 ovarian
# PC-3 prostate = test system: PC-3 prostate
# RPMI-8226 leukemia = test system: RPMI-8226 leukemia
# RXF 393 renal = test system: RXF 393 renal
# SF-268 CNS = test system: SF-268 CNS
# SF-295 CNS = test system: SF-295 CNS
# SF-539 CNS = test system: SF-539 CNS
# SK-MEL-2 melanoma = test system: SK-MEL-2 melanoma
# SK-MEL-5 melanoma = test system: SK-MEL-5 melanoma
# SN12C renal = test system: SN12C renal
# SR leukemia = test system: SR leukemia
# SW-620 colon = test system: SW-620 colon
# UACC-257 melanoma = test system: UACC-257 melanoma
# UACC-62 melanoma = test system: UACC-62 melanoma
# UO-31 renal = test system: UO-31 renal
# COLO 205 colon = test system: COLO 205 colon
# HCT-116 colon = test system: HCT-116 colon
# HT29 colon = test system: HT29 colon
# OVCAR-4 ovarian = test system: OVCAR-4 ovarian
# SK-MEL-28 melanoma = test system: SK-MEL-28 melanoma
# SK-OV-3 ovarian = test system: SK-OV-3 ovarian
# TK-10 renal = test system: TK-10 renal
# U251 CNS = test system: U251 CNS
structure (smiles),measurement,setting,value
C(#Cc1cnccn1)/C=C\C#Cc1cnccn1,GI50,786-0 renal,10.7 µM
same,TGI,786-0 renal,29 µM
same,GI50,A498 renal,27.8 µM
same,TGI,A498 renal,50.7 µM
same,GI50,A549 NSCLC,15.6 µM
same,TGI,A549 NSCLC,42.2 µM
same,GI50,ACHN renal,16 µM
same,TGI,ACHN renal,40 µM
same,GI50,BT-549 breast,12 µM
same,TGI,BT-549 breast,37.4 µM
same,GI50,CAKI-1 renal,2.14 µM
same,TGI,CAKI-1 renal,6.92 µM
same,GI50,CCRF-CEM leukemia,2.67 µM
same,TGI,CCRF-CEM leukemia,> 100 µM
same,GI50,DU-145 prostate,19.2 µM
same,TGI,DU-145 prostate,72 µM
same,GI50,EKVX NSCLC,3.69 µM
same,TGI,EKVX NSCLC,16 µM
same,GI50,HCC-2998 colon,3.63 µM
same,TGI,HCC-2998 colon,11.5 µM
same,GI50,HCT-15 colon,2.74 µM
same,TGI,HCT-15 colon,10.6 µM
same,GI50,HL-60(TB) leukemia,24.1 µM
same,TGI,HL-60(TB) leukemia,> 100 µM
same,GI50,HOP-92 NSCLC,31.1 µM
same,TGI,HOP-92 NSCLC,83.9 µM
same,GI50,HS 578T breast,31.6 µM
same,TGI,HS 578T breast,> 100 µM
same,GI50,IGROV1 ovarian,33.1 µM
same,TGI,IGROV1 ovarian,> 100 µM
same,GI50,K-562 leukemia,4.18 µM
same,TGI,K-562 leukemia,> 100 µM
same,GI50,KM12 colon,3.43 µM
same,TGI,KM12 colon,22.4 µM
same,GI50,LOX IMVI melanoma,1.65 µM
same,TGI,LOX IMVI melanoma,10.5 µM
same,GI50,M14 melanoma,1.72 µM
same,TGI,M14 melanoma,3.86 µM
same,GI50,MCF7 breast,14.1 µM
same,TGI,MCF7 breast,> 100 µM
same,GI50,MDA-MB-231 breast,4.4 µM
same,TGI,MDA-MB-231 breast,20.7 µM
same,GI50,MDA-MB-435,7.72 µM
same,TGI,MDA-MB-435,33.1 µM
same,GI50,MOLT-4 leukemia,11.4 µM
same,TGI,MOLT-4 leukemia,> 100 µM
same,GI50,NCI-H226 lung,23.3 µM
same,TGI,NCI-H226 lung,68.1 µM
same,GI50,NCI-H23 lung,1.65 µM
same,TGI,NCI-H23 lung,3.79 µM
same,GI50,NCI-H460 lung,19.4 µM
same,TGI,NCI-H460 lung,> 100 µM
same,GI50,NCI-H522 lung,2.4 µM
same,TGI,NCI-H522 lung,18.1 µM
same,GI50,NCI/ADR-RES ovarian,7.46 µM
same,TGI,NCI/ADR-RES ovarian,44.3 µM
same,GI50,OVCAR-3 ovarian,7.14 µM
same,TGI,OVCAR-3 ovarian,28.4 µM
same,GI50,OVCAR-5 ovarian,16.4 µM
same,TGI,OVCAR-5 ovarian,31.7 µM
same,GI50,OVCAR-8 ovarian,12.5 µM
same,TGI,OVCAR-8 ovarian,> 100 µM
same,GI50,PC-3 prostate,29.7 µM
same,TGI,PC-3 prostate,97.3 µM
same,GI50,RPMI-8226 leukemia,8.49 µM
same,TGI,RPMI-8226 leukemia,43.8 µM
same,GI50,RXF 393 renal,13 µM
same,TGI,RXF 393 renal,38.6 µM
same,GI50,SF-268 CNS,22.8 µM
same,TGI,SF-268 CNS,> 100 µM
same,GI50,SF-295 CNS,15 µM
same,TGI,SF-295 CNS,32.1 µM
same,GI50,SF-539 CNS,15.4 µM
same,TGI,SF-539 CNS,46.1 µM
same,GI50,SK-MEL-2 melanoma,41.8 µM
same,TGI,SK-MEL-2 melanoma,> 100 µM
same,GI50,SK-MEL-5 melanoma,19.8 µM
same,TGI,SK-MEL-5 melanoma,39.9 µM
same,GI50,SN12C renal,13.6 µM
same,TGI,SN12C renal,29.9 µM
same,GI50,SR leukemia,3.54 µM
same,TGI,SR leukemia,> 100 µM
same,GI50,SW-620 colon,2.87 µM
same,TGI,SW-620 colon,6.88 µM
same,GI50,UACC-257 melanoma,7.43 µM
same,TGI,UACC-257 melanoma,27.1 µM
same,GI50,UACC-62 melanoma,10.4 µM
same,TGI,UACC-62 melanoma,22.3 µM
same,GI50,UO-31 renal,36 µM
same,TGI,UO-31 renal,> 100 µM
c1ccc2c(c1)nc1n2sc2nc3ccccc3n21,TGI,786-0 renal,> 100 µM
same,TGI,A549 NSCLC,> 100 µM
same,TGI,BT-549 breast,> 100 µM
same,TGI,CAKI-1 renal,> 100 µM
same,TGI,CCRF-CEM leukemia,> 100 µM
same,TGI,COLO 205 colon,> 100 µM
same,TGI,DU-145 prostate,> 100 µM
same,TGI,EKVX NSCLC,> 100 µM
same,TGI,HCC-2998 colon,> 100 µM
same,TGI,HCT-116 colon,> 100 µM
same,TGI,HCT-15 colon,> 100 µM
same,TGI,HL-60(TB) leukemia,> 100 µM
same,TGI,HOP-92 NSCLC,> 100 µM
same,TGI,HS 578T breast,> 100 µM
same,TGI,HT29 colon,> 100 µM
same,TGI,IGROV1 ovarian,> 100 µM
same,TGI,K-562 leukemia,> 100 µM
same,TGI,KM12 colon,> 100 µM
same,TGI,LOX IMVI melanoma,> 100 µM
same,TGI,M14 melanoma,> 100 µM
same,TGI,MCF7 breast,> 100 µM
same,TGI,MDA-MB-231 breast,> 100 µM
same,TGI,MDA-MB-435,> 100 µM
same,TGI,MOLT-4 leukemia,> 100 µM
same,TGI,NCI-H226 lung,> 100 µM
same,TGI,NCI-H23 lung,> 100 µM
same,TGI,NCI-H460 lung,> 100 µM
same,TGI,NCI-H522 lung,> 100 µM
same,TGI,NCI/ADR-RES ovarian,> 100 µM
same,TGI,OVCAR-3 ovarian,> 100 µM
same,TGI,OVCAR-4 ovarian,> 100 µM
same,TGI,OVCAR-5 ovarian,> 100 µM
same,TGI,OVCAR-8 ovarian,> 100 µM
same,TGI,PC-3 prostate,> 100 µM
same,TGI,RPMI-8226 leukemia,> 100 µM
same,TGI,SF-268 CNS,> 100 µM
same,TGI,SF-295 CNS,> 100 µM
same,TGI,SF-539 CNS,> 100 µM
same,TGI,SK-MEL-2 melanoma,> 100 µM
same,TGI,SK-MEL-28 melanoma,> 100 µM
same,TGI,SK-MEL-5 melanoma,> 100 µM
same,TGI,SK-OV-3 ovarian,> 100 µM
same,TGI,SN12C renal,> 100 µM
same,TGI,SR leukemia,> 100 µM
same,TGI,SW-620 colon,> 100 µM
same,TGI,TK-10 renal,> 100 µM
same,TGI,U251 CNS,> 100 µM
same,TGI,UACC-257 melanoma,> 100 µM
same,TGI,UACC-62 melanoma,79 µM
same,TGI,UO-31 renal,> 100 µM

# Source: PubChem BioAssay (NCI)
